What follows are compounds tested against T1, STING (Homo sapiens, UniProt Q86WV6, G230A/H232R/R293Q/R71H) (assay: STING reporter assay: luciferase reporter activity in THP1-Dual KO-IFNAR2 cells stimulated with 2'3'cGAMP). Conditions: 2′3′cGAMP 15 μM final, 24h, read-out: hSTING: EC50.
T1 construct: host or cells: THP1-Dual KO-IFNAR2 cells
T1 sequence (Q86WV6 whole entry R71H/G230A/H232R/R293Q): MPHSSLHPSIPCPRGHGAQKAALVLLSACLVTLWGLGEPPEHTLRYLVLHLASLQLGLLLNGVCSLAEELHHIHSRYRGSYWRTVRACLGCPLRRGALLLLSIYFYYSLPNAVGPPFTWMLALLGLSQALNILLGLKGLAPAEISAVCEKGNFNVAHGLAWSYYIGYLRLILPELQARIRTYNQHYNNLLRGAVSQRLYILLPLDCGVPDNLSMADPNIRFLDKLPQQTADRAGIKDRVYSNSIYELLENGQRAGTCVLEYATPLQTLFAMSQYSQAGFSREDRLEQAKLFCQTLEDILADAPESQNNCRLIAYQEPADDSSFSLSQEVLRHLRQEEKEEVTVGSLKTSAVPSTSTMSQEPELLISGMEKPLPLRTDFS
Assay type: cell-based
Protocol: STING pathway activation by the compounds described herein was measured using THIP1-Dua1™ cells (KO-IFNAR2).
TTIP1-Dual™ KO-IFNAR2 Cells (obtained from invivogen) were maintained in RPMI, 10% FCS, 5 ml P/S, 2 mM L-glut, 10 mM Hepes, and 1 mM sodium pyruvate. Compounds were spotted in empty 384 well tissue culture plates (Greiner 781182) by Echo for a final concentration of 0.0017-100 μM. Cells were plated into the TC plates at 40 μL per well, 2×10E6 cells/mL. For activation with STING ligand, 2′3′cGAMP (MW 718.38, obtained from Invivogen), was prepared in Optimem media.
The following solutions were prepared for each 1×384 plate: • Solution A: 2 mL Optimem with one of the following stimuli: • […] • Solution B: 2 mL Optimem with 60 μL Lipofectamine 2000->Incubate 5 min at RT
2 mL of solution A and 2 ml Solution B was mixed and incubated for 20 min at room temperature (RT). 20 uL of transfection solution (A+B) was added on top of the plated cells, with a final 2′3′cGAMP concentration of 15 μM. The plates were then centrifuged immediately at 340 g for 1 minute, after which they were incubated at 37° C., 5% C02, >98% humidity for 24h. Luciferase reporter activity was then measured. EC50 values were calculated by using standard methods known in the art.
Luciferase reporter assay: 10 μL of supernatant from the assay was transferred to white 384-plate with flat bottom and squared wells. One pouch of QUANTI-Luc™ Plus was dissolved in 25 mL of water. 100 μL of QLC Stabilizer per 25 mL of QUANTI-Luc™ Plus solution was added. 50 μL of QUANTI-Luc™ Plus/QLC solution per well was then added. Luminescence was measured on a Platereader (e.g., Spectramax I3X (Molecular Devices GF3637001)).
Luciferase reporter activity was then measured. EC50 values were calculated by using standard methods known in the art.
For `O=C(Nc1c[nH]c2cc(F)c(F)cc12)C(=O)N[C@@H]1CCC[C@H](Oc2ccc(C(F)(F)F)cc2)C1` (single isomer, unassigned) [Compound 220], the EC50 was 0.2 to 1 µM. Work on `O=C(Nc1c[nH]c2cc(F)c(F)cc12)C(=O)N[C@H]1CCC[C@H](Oc2ccc(C(F)(F)F)cc2)C1` (single isomer, unassigned) [Compound 227] yielded an EC50 of 0.04 to 0.2 µM. `O=C(Nc1c[nH]c2cc(F)c(F)cc12)C(=O)N[C@@H]1CCC[C@@H](Oc2ccc(C(F)(F)F)cc2)C1` (single isomer, unassigned) [Compound 228] gave an EC50 of 0.2 to 1 µM. `CCC(NC(=O)C(=O)Nc1c[nH]c2cc(F)c(F)cc12)c1cccc(C(F)(F)F)c1` (single isomer, unassigned) [Compound 235] showed an EC50 of 0.2 to 1 µM. `CCC(NC(=O)C(=O)Nc1c[nH]c2cc(F)c(F)cc12)c1cccc(C(F)(F)F)c1` (single isomer, unassigned) [Compound 236] was tested, and the EC50 was 0.2 to 1 µM. `O=C(Nc1c[nH]c2cc(F)c(F)cc12)C(=O)NC(c1ccccc1)C(F)(F)F` (single isomer, unassigned) [Compound 239, N-(5,6-difluoro-1H-indol-3-yl)-N′-(2,2,2-trifluoro-1-phenylethyl)oxalamide] was tested, and the EC50 was 0.2 to 1 µM. In the case of `O=C(Nc1c[nH]c2cc(F)c(F)cc12)C(=O)NC(c1ccccc1)C(F)(F)F` (single isomer, unassigned) [Compound 240, N-(5,6-difluoro-1H-indol-3-yl)-N′-(2,2,2-trifluoro-1-phenylethyl)oxalamide], the EC50 is reported as 0.2 to 1 µM. In the case of `O=C(Nc1c[nH]c2cc(F)c(F)cc12)C(=O)NC1CCOC2(CCCC2)C1` (single isomer, unassigned) [Compound 243], the EC50 is reported as 1 to 5 µM. For `O=C(Nc1c[nH]c2cc(F)c(F)cc12)C(=O)NC1CCOC2(CCCC2)C1` (single isomer, unassigned) [Compound 244], the EC50 was 1 to 5 µM. With `O=C(Nc1c[nH]c2cc(F)c(F)cc12)C(=O)NC1CCC2(CCCC2)C1` (single isomer, unassigned) [Compound 245] the EC50 was 0.2 to 1 µM. Work on `O=C(Nc1c[nH]c2cc(F)c(F)cc12)C(=O)NC1CCC2(CCCC2)C1` (single isomer, unassigned) [Compound 246] yielded an EC50 of 0.2 to 1 µM. `O=C(Nc1c[nH]c2cc(F)c(F)cc12)C(=O)NC1CCC2(CCCCC2)C1` (single isomer, unassigned) [Compound 247] was tested, and the EC50 was 0.2 to 1 µM. For `O=C(Nc1c[nH]c2cc(F)c(F)cc12)C(=O)NC1CCCC2(CCCCC2)C1` (single isomer, unassigned) [Compound 257], the EC50 was 0.2 to 1 µM. With `O=C(Nc1c[nH]c2cc(F)c(F)cc12)C(=O)NC1CCCC2(CCCCC2)C1` (single isomer, unassigned) [Compound 258] the EC50 was 0.2 to 1 µM. For `CC(NC(=O)C(=O)Nc1c[nH]c2cc(F)c(F)cc12)c1cc(C(F)(F)F)c(Cl)cn1` (single isomer, unassigned) [Compound 260], the EC50 was 1 to 5 µM. Compound `CC(CN(C)c1ccccc1)NC(=O)C(=O)Nc1c[nH]c2cc(F)c(F)cc12` (single isomer, unassigned) [Compound 320] has an EC50 of 0.2 to 1 µM. For `CC(NC(=O)C(=O)Nc1c[nH]c2cc(F)c(F)cc12)c1ccc(C(F)(F)F)cc1` (single isomer, unassigned) [Compound 330], the EC50 was 0.04 to 0.2 µM. `O=C(NCC(c1ccccc1)C(F)F)C(=O)Nc1c[nH]c2cc(F)c(F)cc12` (single isomer, unassigned) [Compound 347] was tested, and the EC50 was 0.2 to 1 µM. `O=C(Nc1c[nH]c2cc(F)c(F)cc12)C(=O)N[C@@H]1CCC2(CCCCC2)C1` (stereo in doubt) [Compound 248] gave an EC50 of 0.04 to 0.2 µM. In the case of `C[C@H](NC(=O)C(=O)Nc1c[nH]c2cc(F)c(F)cc12)c1cc(C(F)(F)F)c(Cl)cn1` (stereo in doubt) [Compound 259], the EC50 is reported as 0.04 to 0.2 µM. `C[C@@H](CN(C)c1ccccc1)NC(=O)C(=O)Nc1c[nH]c2cc(F)c(F)cc12` (stereo in doubt) [Compound 319] was tested, and the EC50 was 0.2 to 1 µM. In the case of `C[C@H](NC(=O)C(=O)Nc1c[nH]c2cc(F)c(F)cc12)c1ccc(C(F)(F)F)cc1` (stereo in doubt) [Compound 329], the EC50 is reported as 0.04 to 0.2 µM. Compound `O=C(Nc1ccc(C(F)(F)F)cn1)C(=O)Nc1c[nH]c2cc(F)c(F)cc12` [Compound 101] has an EC50 of 0.2 to 1 µM.
